Test results as given in patent publication US20110105565A1, “WATER SOLUBLE SMALL MOLECULE INHIBITORS OF THE CYSTIC FIBROSIS TRANSMEMBRANE CONDUCTANCE REGULATOR” (THE REGENTS OF THE UNIVERSITY OF CALIFORNIA, priority 2008, published 2011).
Converted amounts (≈) assume the structure as drawn. “And” between values parts separate entries of the source, which are not always exact repeats. Equal values may be shown once.

Tests used:
FRT cells = assay: Cytotoxicity measurements, crystal violet staining of FRT cells; assay type: cell-based, rat; conditions: 48 h; for % Cell viability 20 μM / % Cell viability 50 μM: crystal violet staining
Protocol: Cytotoxicity measurements. FRT cells in confluent monolayers were incubated with compounds for 2 days. Cells were washed 3 times, fixed (cytofix, 30 min) and stained with crystal violet (100 μl, 0.5%, 10 min) using standard procedures. Excess crystal violet was removed by washing, and dye was extracted with Sorenson's buffer (0.1 M sodium citrate, 50% ethanol, pH 4.2). Crystal violet was quantified by measurement of absorbance at 650 nm. The percentage crystal violet staining was determined from test wells measured 8 times, compared to blanks (wells not containing cells) and vehicle-treated cells.
Cytotoxicity analysis was performed for Tetrazolo-172, Oxo-172, α-Me-172 and Pyridine-NO-172 (Compound 17) and compared with CFTRinh-172 (Table 3). […] Crystal violet staining was reduced for Tetrazolo-172 and α-Me-172 at 50 μM.

MDCK cells [1] = assay: MDCK cell cyst model of polycystic kidney disease; assay type: cell-based, Canine; conditions: 10 μM
From the text: An MDCK cell model of polycystic kidney disease was used to screen CFTR inhibitors of the thiazolidinone and glycine hydrazide classes for reducing cyst formation and expansion. […] Culture of MDCK cells in three-dimensional collagen gels produces a polarized, single-layer, thinned epithelium surrounding a fluid-filled space, apical […] microvilli, a solitary cilium, and apical tight junctions (see, e.g., McAteer et al., Scan Elect Microsc (Pt 3): 1135-1150, 1986; McAteer et al., Scanning Microsc 2: 1739-1763, 1988; and Taide et al., Eur J Clin Invest 26: 506-513, 1996).
Type I MDCK cells (ATCC No. CCL-34) were cultured at 37° C. in a humidified 95% air/5% CO2 atmosphere in a 1:1 mixture of Dulbecco's modified Eagle's medium (DMEM) and Ham's F-12 nutrient medium supplemented with 10% fetal bovine serum (Hyclone), 100 U/mL penicillin and 100 μg/mL streptomycin. To generate cysts, four hundred MDCK cells were suspended in 0.4 ml of ice-cold Minimum Essential Medium containing 2.9 mg/mL collagen (PuRECOL, Inamed Biomaterials, Fremont Calif.), 10 mM HEPES, 27 mM NaHCO3, 100 U/mL penicillin and 100 μg/mL streptomycin (pH 7.4). The cell suspension was plated onto 24-well plates. After gelation, 1.5 mL of MDCK cell medium containing 10 μM forskolin was added to each well and plates were maintained at 37° C. in a 5% CO2 humidified atmosphere.
The compound structures together with their approximate CFTR inhibition potencies (expressed as IC50 values) are provided in FIGS. 3 and 4. Indicated IC50 values for T01-07, T10, T12-14 were reported by Ma et al. (J Clin Invest 110: 1651-1658 (2002)). IC50 values for T08, T11, and T16 were determined by short-circuit analysis performed according to methods described herein. Indicated IC50 values for G01-05, G8-16 were reported by Sonawane et al. (FASEB J. 20: 130-132 (2006); Sonawane et al., Gastroenterology 132:1234-44 (2007)). IC50 values for G06 and G07 were determined by short-circuit current analysis performed according to methods described herein.
Medium containing forskolin and test compounds was changed every 12 h. At day 6, cysts (with diameters >50 μm) and non-cyst cell colonies were counted by phase-contrast light microscopy at 20× magnification (546 nm monochromatic illumination) using a Nikon TE 2000-S inverted microscope. In some experiments, compounds were added to medium in the continued presence of forskolin from day 4 after seeding and the medium containing forskolin and compounds was changed every 12 h for 8 days. Micrographs showing the same cysts in collagen gels (identified by markings on plates) were obtained every 2 days. For determination of cyst growth, cyst diameters were measured using Image J software. At least 10 cysts/well and 3 wells/group were measured for each condition.

human wildtype CFTR [2] = target: T1, human wildtype CFTR (Homo sapiens, UniProt P13569); assay: Fluorescence cell-based assay of CFTR inhibition (YFP iodide influx, FRT cells); set-up: expressed in transfected cells; host or cells: Fisher rat thyroid (FRT) cells; conditions: for CFTR inhibitory activity (in words): structure-activity discussion
T1 sequence (P13569 whole entry): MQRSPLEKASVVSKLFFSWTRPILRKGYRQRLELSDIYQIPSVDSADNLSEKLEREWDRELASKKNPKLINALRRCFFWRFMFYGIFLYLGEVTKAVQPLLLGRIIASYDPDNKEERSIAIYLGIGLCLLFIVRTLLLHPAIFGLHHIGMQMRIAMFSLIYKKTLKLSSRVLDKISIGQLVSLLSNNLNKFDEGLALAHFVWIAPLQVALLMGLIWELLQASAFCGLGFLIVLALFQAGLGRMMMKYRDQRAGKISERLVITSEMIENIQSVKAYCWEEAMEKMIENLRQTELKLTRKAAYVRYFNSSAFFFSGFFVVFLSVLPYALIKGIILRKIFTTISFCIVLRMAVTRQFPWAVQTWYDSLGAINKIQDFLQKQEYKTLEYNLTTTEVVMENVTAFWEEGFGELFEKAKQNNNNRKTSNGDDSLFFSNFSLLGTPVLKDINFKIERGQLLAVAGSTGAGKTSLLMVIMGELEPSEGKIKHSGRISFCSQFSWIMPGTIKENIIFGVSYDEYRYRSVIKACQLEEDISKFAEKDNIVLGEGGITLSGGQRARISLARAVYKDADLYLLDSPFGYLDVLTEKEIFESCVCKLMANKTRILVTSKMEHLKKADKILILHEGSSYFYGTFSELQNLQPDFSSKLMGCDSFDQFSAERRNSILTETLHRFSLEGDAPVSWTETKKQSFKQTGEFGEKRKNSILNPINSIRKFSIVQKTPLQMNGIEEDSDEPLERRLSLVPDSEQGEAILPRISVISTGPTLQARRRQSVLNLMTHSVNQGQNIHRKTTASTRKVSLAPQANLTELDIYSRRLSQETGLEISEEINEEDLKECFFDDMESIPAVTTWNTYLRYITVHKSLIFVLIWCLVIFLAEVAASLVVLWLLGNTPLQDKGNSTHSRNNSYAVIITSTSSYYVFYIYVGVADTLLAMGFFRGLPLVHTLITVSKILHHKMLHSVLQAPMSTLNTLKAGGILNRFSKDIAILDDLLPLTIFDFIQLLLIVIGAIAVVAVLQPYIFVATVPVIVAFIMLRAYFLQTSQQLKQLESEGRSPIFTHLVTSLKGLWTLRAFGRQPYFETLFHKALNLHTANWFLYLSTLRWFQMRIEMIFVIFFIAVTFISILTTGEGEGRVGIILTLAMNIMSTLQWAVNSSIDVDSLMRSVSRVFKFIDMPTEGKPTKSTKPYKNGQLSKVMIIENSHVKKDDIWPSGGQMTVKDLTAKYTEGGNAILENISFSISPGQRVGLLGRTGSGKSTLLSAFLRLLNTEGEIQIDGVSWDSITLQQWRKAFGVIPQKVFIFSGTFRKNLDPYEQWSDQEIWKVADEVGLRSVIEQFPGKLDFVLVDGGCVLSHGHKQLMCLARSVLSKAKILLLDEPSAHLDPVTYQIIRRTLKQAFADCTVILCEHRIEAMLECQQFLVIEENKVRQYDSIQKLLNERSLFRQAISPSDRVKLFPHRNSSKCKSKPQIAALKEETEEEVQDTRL

human wildtype CFTR [3] = target: T1, human wildtype CFTR; assay: Short-circuit current measurements, apical chloride current in FRT cells; assay type: cell-based; set-up: expressed in transfected cells; host or cells: FRT (Fisher rat thyroid) cells; conditions: for inhibition of CFTR in short-circuit current analysis (in words): increasing concentration, forskolin-stimulated
[4] = cited references; cited from earlier work
[5] = Solubility measurements in saline (PBS, LC/MS); assay type: physicochemical; conditions: for Solubility in saline: Table 3, PBS, DMSO <2%; for solubility in saline / aqueous solubility: values in text, LC/MS
Protocol: Solubility measurements. A saturated compound solution was prepared by addition of DMSO stock to phosphate buffered saline (final DMSO 2%) followed by sonication for 5 min at 25° C. and shaking at room temperature for 1 h. After centrifugation at 15,000 rpm for 1 h, the supernatant was analyzed by LC/MS with concentration determined from area under the curve, standardized against calibration data. A standard curve for each compound was obtained by plotting area under the curve from chromatograms against inhibitor concentration. The concentration range of the standard solutions was 1-15 μM (for 5) and 1-100 μM (other compounds). In all cases, standard curves prepared were linear with r>0.998.
A saturated drug solution of a compound was prepared by addition of the compound in DMSO to phosphate buffered saline (PBS), followed by sonication for 5 min at 25° C. Final concentration of DMSO was <2%. Each saturated solution was centrifuged and filtered. The saturated supernatant solution was diluted and injected into LC/MS. The concentration was determined from area under the curve using a calibration curve.

MDCK cells [6] = assay: MDCK cell cytotoxicity, crystal violet staining; assay type: cell-based, Canine; conditions: 20 μM, 72 h
Protocol: To test whether inhibition of cyst growth could be related to cytotoxicity, certain compounds were tested for their effects on cell viability, cell proliferation and apoptosis. Crystal violet staining was used to assess compound effects on cytotoxicity (see, e.g., Johnson et al., Clin Cancer Res 11: 6924-6932, 2005). MDCK cells were incubated for 24 h on 96-well plates, and then incubated for 72 h with test compounds at 20 μM. Medium was removed and adherent cells were fixed and stained for 30 min with 0.5% crystal violet in 20% methanol. Plates were washed with distilled water, and the stain was extracted with Sorenson's buffer (0.1 mol/L sodium citrate, pH 4.2, in 50% ethanol) overnight at 4° C., and absorbance measured at 570 nm.

[7] = Table 1, upper part, CFTR inhibitory activity, given as ranges, read-out: IC50
[8] = Table 2 summary table, given as ranges, read-out: IC50
[9] = Table 3, inhibition potency, read-out: IC50
[10] = values in text, forskolin-stimulated CFTR, read-out: IC50 (short-circuit current)
[11] = Table 1, lower parts, given as ranges, read-out: IC50

| Structure (SMILES) | IC50 (human wildtype CFTR [2]; [7]) | IC50 (human wildtype CFTR [2]; [8]) | IC50 (human wildtype CFTR [3]; [9]) | IC50 (human wildtype CFTR [3]; [10]) | Solubility in saline [5] | CFTR inhibitory activity (in words) (human wildtype CFTR [2]) | IC50 (human wildtype CFTR [2]; Tables 1 and 2, read-out: IC50 (CFTR inhibition)) | inhibition of CFTR in short-circuit current analysis (in words) (human wildtype CFTR [3]) | solubility in saline / aqueous solubility [5] | IC50 (human wildtype CFTR [2]; [11]) | reduction of CFTR inhibition potency relative to CFTRinh-172 (human wildtype CFTR [3]; short-circuit current assays) | increase of solubility in saline/water relative to CFTRinh-172 [5] | water solubility (in words) [5] | % Cell viability 20 μM (FRT cells) | effect on MDCK cyst enlargement/formation (in words) (MDCK cells [1]) | water solubility [4] | MDCK cell viability (in words) (MDCK cells [6]) | Crystal violet staining at 50 μM (in words) (FRT cells; 50 μM) | % Cell viability 50 μM (FRT cells; 50 μM) |
| --- | --- | --- | --- | --- | --- | --- | --- | --- | --- | --- | --- | --- | --- | --- | --- | --- | --- | --- | --- |
| O=C1/C(=C/c2cc(Br)c(O)c(Br)c2O)SC(=S)N1c1cccc(C(F)(F)F)c1 [Compound 15, (Z)-5-(3,5-dibromo-2,4-dihydroxybenzylidene)-2-thioxo-3-(3-(trifluoromethyl)phenyl) thiazolidin-4-one] | 5 to 10 µM | 5 to 10 µM | – | – | – | modest inhibition activity | – | – | – | – | – | – | – | – | – | – | reduced MDCK cell viability | – | – |
| O=C1/C(=C/c2cc[n+]([O-])cc2)SC(=S)N1c1cccc(C(F)(F)F)c1 [Compound 17, (Z)-4-((4-oxo-2-thioxo-3-(3-(trifluoromethyl)phenyl)thiazolidin-5-ylidene)methyl)pyridine 1-oxide] | – | 5 to 10 µM | 8.7 ± 0.7 µM | 9 µM and 7 to 9 µM | – | – | 5 to 10 µM | dose dependant inhibition | 264 µM (≈ 101 µg/mL) | – | – | – | – | – | – | – | – | – | – |
| O=C(O)c1ccc(/C=C2\SC(=O)N(c3cccc(C(F)(F)F)c3)C2=O)cc1 [Compound 47, (Z)-4-((2,4-dioxo-3-(3-(trifluoromethyl)phenyl)thiazolidin-5-ylidene)methyl)benzoic acid] | – | 1 to 2 µM | 1.4 ± 0.2 µM | 1 to 2 µM | 420 µM (≈ 165 µg/mL) | – | – | dose dependant inhibition | – | 1 to 2 µM | 3.6 fold | ~25 fold | – | 93% | – | – | – | – | 91% |
| O=C(O)c1ccc(NC(=S)C2SC(=S)N(c3cccc(C(F)(F)F)c3)C2=O)cc1O (centres unmarked) [Compound 52, 2-hydroxy-4-(4-oxo-2-thioxo-3-(3-(trifluoromethyl)phenyl)thiazolidine-5-carbothioamido)benzoic acid] | – | 10 to 20 µM | – | – | – | inactive | – | – | – | 10 to 20 µM | – | – | highly water soluble | – | – | – | – | – | – |

The next lines start with results.

| IC50 (human wildtype CFTR [2]; [7]) | IC50 (human wildtype CFTR [2]; [8]) | IC50 (human wildtype CFTR [3]; [9]) | IC50 (human wildtype CFTR [3]; [10]) | Solubility in saline [5] | CFTR inhibitory activity (in words) (human wildtype CFTR [2]) | IC50 (human wildtype CFTR [2]; Tables 1 and 2, read-out: IC50 (CFTR inhibition)) | inhibition of CFTR in short-circuit current analysis (in words) (human wildtype CFTR [3]) | solubility in saline / aqueous solubility [5] | IC50 (human wildtype CFTR [2]; [11]) | reduction of CFTR inhibition potency relative to CFTRinh-172 (human wildtype CFTR [3]; short-circuit current assays) | increase of solubility in saline/water relative to CFTRinh-172 [5] | water solubility (in words) [5] | Structure (SMILES) | % Cell viability 20 μM (FRT cells) | effect on MDCK cyst enlargement/formation (in words) (MDCK cells [1]) | water solubility [4] | MDCK cell viability (in words) (MDCK cells [6]) | Crystal violet staining at 50 μM (in words) (FRT cells; 50 μM) | % Cell viability 50 μM (FRT cells; 50 μM) |
| --- | --- | --- | --- | --- | --- | --- | --- | --- | --- | --- | --- | --- | --- | --- | --- | --- | --- | --- | --- |
| 0.1 to 1 µM | 0.1 to 1 µM | 0.38 ± 0.04 µM | 0.4 µM and 0.25 to 0.5 µM | 17 µM (≈ 6.96 µg/mL) | – | – | – | – | – | – | – | – | O=C(O)c1ccc(/C=C2\SC(=S)N(c3cccc(C(F)(F)F)c3)C2=O)cc1 [Compound 5, (Z)-4-((4-oxo-2-thioxo-3-(3-(trifluoromethyl)phenyl)thiazolidin-5-ylidene)methyl)benzoic acid, reference compound] | 86% | inhibited cyst formation, but to a lesser extent | less than 17 μM | – | – | – |
| 5 to 10 µM | 5 to 10 µM | 8.2 ± 0.4 µM | 8 µM and 8 to 10 µM | – | – | – | dose dependant inhibition | 259 µM (≈ 110 µg/mL) | – | – | – | – | Cc1c(N2C(=O)/C(=C/c3ccc(C(=O)O)cc3)SC2=S)cccc1C(F)(F)F [Compound 18, (Z)-4-((3-(2-methyl-3-(trifluoromethyl)phenyl)-4-oxo-2-thioxothiazolidin-5-ylidene)methyl)benzoic acid] | 89% | – | – | – | reduced | 72% |
